The text below walks through data of ChEMBL document CHEMBL1150530, “Thromboxane receptor antagonism combined with thromboxane synthase inhibition. 6. 4-substituted 3-pyridinylalkanoic acids” (Bioorg Med Chem Lett, 1992).

The species entered for experiment [1] is Homo sapiens. The experiment is described as follows: Inhibitory concentration against U 46619 induced aggregation of human platelet rich plasma(PRP). In kind it is functional.
The target in experiment [2] is T1, Thromboxane-A synthase (Homo sapiens, UniProt P24557).
T1 sequence (P24557 whole entry): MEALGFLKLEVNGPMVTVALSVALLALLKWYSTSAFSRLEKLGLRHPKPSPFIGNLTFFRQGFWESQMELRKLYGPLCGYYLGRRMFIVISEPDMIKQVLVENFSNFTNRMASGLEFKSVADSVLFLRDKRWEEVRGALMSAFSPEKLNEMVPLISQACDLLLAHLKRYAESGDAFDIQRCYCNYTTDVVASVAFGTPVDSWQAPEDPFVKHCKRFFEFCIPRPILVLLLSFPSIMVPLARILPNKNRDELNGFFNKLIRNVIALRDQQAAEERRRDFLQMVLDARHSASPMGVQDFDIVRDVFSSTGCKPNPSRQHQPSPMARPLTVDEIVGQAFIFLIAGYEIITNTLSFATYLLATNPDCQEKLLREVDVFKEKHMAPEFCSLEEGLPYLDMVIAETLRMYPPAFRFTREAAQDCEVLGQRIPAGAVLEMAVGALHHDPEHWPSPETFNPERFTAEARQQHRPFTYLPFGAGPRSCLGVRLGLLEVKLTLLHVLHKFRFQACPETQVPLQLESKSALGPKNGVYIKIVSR
Nature of the experiment: Inhibitory concentration against thromboxane synthase enzyme.

For experiment [3], the species on record is Homo sapiens. Nature of the experiment: Inhibitory concentration against U 46619 induced aggregation of human washed platelets(WP). Type of experiment: functional.
The species named for experiment [4] is Homo sapiens. Nature of the experiment: Inhibitory concentration against U 46619 induced aggregation of human platelet rich plasma(PRP); IA=Inactive. In kind it is functional.
The species named for experiment [5] is Homo sapiens. Nature of the experiment: Inhibitory concentration against U 46619 induced aggregation of human washed platelets(WP); IA=Inactive. In kind it is functional.
Experiment [6] addresses T1, Thromboxane-A synthase. The experiment is described as follows: Inhibitory concentration against thromboxane synthase enzyme; IA=Inactive.

As usually defined, the IC50 is the midpoint of a concentration-inhibition curve. High values mean lower potency, low ones higher potency.

As for `O=C(O)CCCCCc1cnccc1CNS(=O)(=O)c1ccc(Cl)cc1`, the IC50 in the experiment filed under Homo sapiens [1] worked out at 1080 nM; at Thromboxane-A synthase [2] it was 66 nM; in the experiment filed under Homo sapiens [3] it was 220 nM.

As for `O=C(O)CCCCCCc1cnccc1CCCNS(=O)(=O)c1ccc(Cl)cc1`, the IC50 amounted to 7970 nM in the experiment listed under Homo sapiens [1], 15 nM against Thromboxane-A synthase [2] and 1440 nM in the experiment filed under Homo sapiens [3].

As for `O=C(O)CCCCCc1cnccc1CCNS(=O)(=O)c1ccc(Cl)cc1`, the figures for the IC50 in the experiment listed under Homo sapiens [1], on Thromboxane-A synthase [2] and in the experiment filed under Homo sapiens [3] were 610 nM, 43 nM and 195 nM, respectively.

On to `O=C(O)CCCCCc1cnccc1CCCNS(=O)(=O)c1ccc(Cl)cc1`, for which the IC50 was determined as 670 nM in the experiment listed under Homo sapiens [1], 100 nM against Thromboxane-A synthase [2] and 36 nM in the experiment filed under Homo sapiens [3].

On to `O=C(O)CCCCCCc1cnccc1NS(=O)(=O)c1ccc(Cl)cc1`, for which the IC50 entry in the experiment filed under Homo sapiens [4], in the experiment filed under Homo sapiens [5] and against Thromboxane-A synthase [6] was “Not Active” throughout.

Consider `O=C(O)CCCCCCc1cnccc1CCNS(=O)(=O)c1ccc(Cl)cc1`, for which the concentration for half-maximal inhibition (IC50) in the experiment listed under Homo sapiens [1] amounted to 440 nM; against Thromboxane-A synthase [2], 80 nM; in the experiment filed under Homo sapiens [3] it was 94 nM.
